Assays:
SKNCM = experiment: Silvestrol in neuroblastoma cell lines in vitro: SKNCM; format: cell-based; settings: SKNCM cells
Experimental: The effect of silvestrol on several neuroblastoma cell lines was evaluated.

[1] = test system: S6 phosphorylation and AKT (T308) phosphorylation; experiment: Immunoblots of S6 and AKT phosphorylation in KOPT-K1 cells; format: cell-based, human; settings: 25 nM, 48 hours
Experimental: (§1) Immunoblots. Lysates were made using Laemli lysis buffer. 30 ug of protein was loaded onto SDS-PAGE gels then transferred onto Immobilon-FL Transfer Membranes (Millipore IPFL00010). The antibodies used were α-Tubulin (Sigma T5168), β-actin (Sigma A5316), Myc (Santa Cruz Biotechnology sc-40), p-Akt 308 (Cell Signaling 9275), Akt (Cell Signaling 9272), S6 (Cell Signaling 2317), and p-S6 (Cell Signaling 2215), Notch1 (Cell signaling 3608), Myb (Santa Cruz Biotechnology, sc-517), CDK6 (Cell Signaling 3136), EZH2 (Cell Signaling 5246), Mdm2 (Santa Cruz Biotechnology, sc-965), Bcl2 (Santa Cruz Biotechnology, sc-509), Run×1 (Cell Signaling 4336), and GAPDH (Cell Signaling 5174).
(§2) E) Simplified diagram of rapamycin and silvestrol mechanism of action.

[2] = test system: primary human T-ALL samples; experiment: Viability / apoptosis induction in primary human T-ALL samples; format: cell-based
Description: as §2

[3] = test system: cap-dependent translation; experiment: Dual-luciferase reporter assay (capped vs IRES-driven luciferase); format: cell-based; settings: renilla and firefly luciferase either capped or under control of an IRES element
Experimental: Luciferase assays. Four tandem repeats of the (CGG)4 12-mer motif (GQs) or random sequence matched for length and GC content (random) were cloned into the 5′UTR of Renilla luciferase plasmid pGL4.73. Empty firefly luciferase plasmid pGL4.13 or HCV-IRES firefly were used as internal controls. Luciferase assays were performed using Dual-Luciferase Reporter Assay System (Promega E1960) following the manufacturer's instructions. GQs sequence: […]

JURKAT and KOPT-K1 cells = experiment: Immunoblots of target proteins in human T-ALL lines; format: cell-based; settings: 25 nM, immunoblot
Experimental: as §1
Given the complexity of the RF data analysis, it was important to directly confirm loss of expression for at least some of these proteins. Briefly, immunoblots on JURKAT and KOPT-K1 cells treated with silvestrol (25 nM) and loaded with equal amounts of total protein confirmed dramatic loss of MYC, NOTCH1, BCL2, and CCND3 proteins (FIG. 6A). The effect on MYC was especially striking, it was dose dependent (FIG. 6B), lasted for 48 h, and was also achieved in xenografts in vivo (Figure S6A-B). […] As expected, ACTIN, TUBULIN, and GAPDH were not affected (FIG. 6A). […] The small and significant increase in MYC mRNA levels might be consistent with prior reports of a MYC auto-regulatory mechanism (Penn et al., 1990a; Penn et al., 1990b) (FIG. 6C).
FIG. 6 depicts validation of selected silvestrol targets. A) Immunoblots of lysates from human T-ALL lines treated with silvestrol (25 nM) and probed as indicated. B) Immunoblots of lysates from JURKAT cells treated with escalating doses of silvestrol and probed as indicated. C) mRNA levels for the corresponding genes treated with vehicle (DMSO, black) or silvestrol (red, 25 nM); D) Volcano plot of mRNA expression changes of all TE Down and rDiff genes in T-ALL samples (n=9) compared to normal thymocytes (n=4). E) Kaplan-Meier analysis showing time to leukemia development (as in FIG. 1B). Wild-type HPCs transduced with NOTCH1-ICN and empty vector (black, n=14), Myb (red, n=4), Ccnd3 T283A (orange, n=5), or shEzh2 (orange, n=10), vavP-Bcl2 (brown, n=4), p53−/− (green, n=3). F) Effect of OmoMYCER activation on survival of leukemic animals; (d=0 represents start of therapy/tamoxifen (TAM) administration). Inset: clearance of GFP expressing murine T-ALL cells from the marrow upon OmomycER activation (Untr: untreated, TAM: tamoxifen). G) Competition experiment (as in FIG. 1C/D) showing the percentage of each starting GFP positive population of murine T-ALL cells partially transduced with the indicated constructs and treated with silvestrol (* indicates p<0.05).
FIG. 13 depicts the relative contribution of MYC and other silvestrol targets in T-ALL. […]

KOPT-K1 xenografts = experiment: KOPT-K1 xenograft study; settings: for tumor growth: d 0-6, systemic; for toxicity, death, weight loss: treated mice, therapeutic doses
Experimental: Statistical analysis. All Kaplan-Meier curves were analyzed using the Mantel-Cox test. The significance of xenografted tumor size differences was determined using two-way repeated measures ANOVA tests. RT-PCRs were analyzed with two tailed t-tests.
Xenografts. 5,000,000 KOPT-K1 cells in 30% matrigel (BD 354234) were injected subcutaneously into C.B-17 scid mice. […] Tumor size was measured daily by caliper. P-values were calculated using 2-way repeated measures ANOVA.
Cycloheximide (C7698) and Rapamycin (R8781) were purchased from Sigma.
D) KOPT-K1 xenograft studies.

Compound | IC50 (SKNCM) [nM] | phosphorylation of AKT (T308) [1] | ribosomal S6 phosphorylation / S6 kinase activity [1] | IC50 ([2]; primary human T-ALL samples in vitro, 48 hours) [nM] | block of cap-dependent versus IRES-dependent translation [3] | ACTIN, TUBULIN and GAPDH protein levels (JURKAT and KOPT-K1 cells) | MYB, CDK6, EZH2 and RUNX1/AML1 protein expression (JURKAT and KOPT-K1 cells) | MYC, NOTCH1, BCL2 and CCND3 protein levels (JURKAT and KOPT-K1 cells) | tumor growth (KOPT-K1 xenografts; 0.5 mg/kg, n=7, p<0.001) | toxicity, death, weight loss (KOPT-K1 xenografts) | in vitro activity against T-ALL compared with silvestrol ([2]; not shown) | target protein levels compared with silvestrol result (JURKAT and KOPT-K1 cells; 24H) | tumor growth (KOPT-K1 xenografts; 0.2 mg/kg, n=8, p<0.001) | pathologic analysis of treated tumors (TUNEL, Ki-67) (KOPT-K1 xenografts; treated KOPT-K1 tumors)
COC(=O)[C@H]1[C@@H](O)[C@@]2(O)c3c(OC)cc(O[C@@H]4O[C@@H]([C@H](O)CO)CO[C@H]4OC)cc3O[C@@]2(c2ccc(OC)cc2)[C@@H]1c1ccccc1 [silvestrol] | 20.2 | did not lead to phosphorylation of AKT (T308) | does not affect S6 kinase activity | 3 to 13 | preferentially block cap-dependent over IRES-dependent translation | not affected | somewhat less decreased | dramatic loss | significant delay in tumor growth | no severe toxicity, death, or weight loss |  |  |  | 
(±)-CR-31-B |  | did not lead to phosphorylation of AKT (T308) | does not affect S6 kinase activity |  | preferentially block cap-dependent over IRES-dependent translation |  |  |  |  | no severe toxicity, death, or weight loss | similar | same result was confirmed | significant delay in tumor growth | diffuse apoptosis by TUNEL and loss of proliferation by Ki-67

— US20150219624A1, “METHODS FOR IDENTIFYING ANTI-CANCER COMPOUNDS” (MEMORIAL SLOAN KETTERING CANCER CENTER, priority 2013, published 2015)
